This passage reports Activity and zone of inhibition results from ChEMBL document CHEMBL3046962, “Synthesis of new olefin chalcone derivatives as antitumor, antioxidant and antimicrobial agents” (Med Chem Res, 2012).

Data set [1] is described as follows: Antioxidant activity assessed as hydroxyl radical scavenging activity at 100 ug after 5 min by UV-Visible spectrophotometry. The class given is functional.
Data set [2] has as its system Radical scavenging activity. Description: Antioxidant activity assessed as DPPH radical scavenging activity at 100 ug after 20 min by UV-Visible spectrophotometry. It counts as functional. (DPPH is a stable violet radical that fades when it is reduced.)
The nature of data set [3]: Cytotoxicity against Homo sapiens (human) PN-5C-12 at 100 ug after 72 hr by MTT assay. The conditions noted are these: in vitro. For orientation: Tetrazolium assays rely on reduction of a dye to a coloured formazan, in cell work by metabolically active cells.
Data set [4] is described as follows: Cytotoxicity against Homo sapiens (human) HL60-P58 at 100 ug after 72 hr by MTT assay. It counts as functional.
A short description of data set [5]: Cytotoxicity against Homo sapiens (human) HeLa-B75 at 100 ug after 72 hr by MTT assay. The class given is functional.
Data set [6] is described as follows: Cytotoxicity against Homo sapiens (human) Hep-3BPN7 at 100 ug after 72 hr by MTT assay. It counts as functional.
The next data set has as its system Candida albicans. Put plainly: Antimicrobial activity against Candida albicans MTCC 3017 at 100 ug after 48 hr by agar disk diffusion method. The note with it: MTCC 3017, 48 h, read-out: DIZ. It counts as functional.
The subject of the next data set is Staphylococcus aureus. Put plainly: Antimicrobial activity against Staphylococcus aureus MTCC 96 at 100 ug after 24 hr by agar disk diffusion method. It counts as functional. The conditions noted are these: MTCC 96, 24 h, read-out: DIZ. On the technique in general: Agar diffusion results depend on both activity and mobility in agar.
A further data set deals with Proteus vulgaris. Description: Antimicrobial activity against Proteus vulgaris MTCC 1751 at 100 ug after 24 hr by agar disk diffusion method. The class given is functional. The conditions noted are these: MTCC 1751, 24 h, read-out: DIZ.
Another data set concerns Escherichia coli. Description: Antimicrobial activity against Escherichia coli DH5[alpha] at 100 ug after 24 hr by agar disk diffusion method. The class given is functional. The note with it: read-out: DIZ.
The nature of data set [7]: Antioxidant activity assessed as ferric reducing activity at 100 ug after 20 min by UV-Visible spectrophotometry. Details: scale not given: the % may be the effect or the level left.

In the case of `COc1cc(OC)c(C2=CCN(C)CC2)c(OC)c1/C=C/C(=O)c1ccc[nH]1`, the Activity in data set [1] worked out at 63.1%; in data set [2], 68.7%; in [3], 57.57%; in [4] it was 66.55%; in data set [5], 77.77%; in data set [6], 80.13%. Moreover, the Activity in data set [7] was found to be 61.2%. Also, the zone of inhibition at 100 µg/disc in the data set on Candida albicans worked out at 1.5 mm; in the data set on Staphylococcus aureus, 1.1 mm; in the data set on Proteus vulgaris, 3 mm; with Escherichia coli, 6.25 mm.
Turning to `COc1ccc(C(=O)/C=C/c2c(OC)cc(OC)c(C3=CCN(C)CC3)c2OC)c(OC)c1`, the Activity stood at 59% in [1]; 60.6% in data set [2]; 47.82% in [3]; 78.48% in data set [4]; 83.4% in data set [5]; 77% in data set [6]. Besides, the Activity in [7] was 53.1%. The zone of inhibition at 100 µg/disc in the data set on Staphylococcus aureus is 2.5 mm; in the data set with Proteus vulgaris, 3.5 mm; in the data set on Escherichia coli, 3.15 mm.
Consider `COc1cc(OC)c(C2=CCN(C)CC2)c(OC)c1/C=C/C(=O)c1ccc(F)cc1`, for which the Activity in data set [1] was 38.7%; in data set [2] it was 22.9%; in data set [3], 69.43%; in data set [4], 62.18%; in [5], 85.04%; in [6], 79.86%. For the same compound, the Activity in data set [7] was 48.3%. The zone of inhibition at 100 µg/disc with Candida albicans was determined as 3.5 mm; in the data set with Staphylococcus aureus, 2 mm; in the data set on Proteus vulgaris it was 7.5 mm; in the data set on Escherichia coli it was 4.5 mm.
As for `COc1cc(OC)c(C2=CCN(C)CC2)c(OC)c1/C=C/C(=O)c1cccc(N)c1`, the Activity in data set [1] was found to be 55.6%; in [2] it was 94.5%; in [3], 44.53%; in [4], 66.72%; in data set [5] it was 82.64%; in [6], 76.33%. The Activity in data set [7] was found to be 64.8%. Moreover, the zone of inhibition at 100 µg/disc in the data set on Candida albicans worked out at 6.3 mm; in the data set with Staphylococcus aureus, 3.5 mm; in the data set on Proteus vulgaris, 7 mm; in the data set on Escherichia coli, 3.5 mm.
As to `CN(Cc1cnc2nc(N)nc(N)c2n1)c1ccc(C(=O)N[C@@H](CCC(=O)O)C(=O)O)cc1` [METHOTREXATE], the Activity in data set [3] stood at 53.85%; in data set [4], 54.08%; in data set [5], 78.66%; in data set [6] it was 64.6%.
In the case of `COc1cc(O)c(C(=O)/C=C/c2c(OC)cc(OC)c(C3=CCN(C)CC3)c2OC)c(OC)c1`, the Activity in data set [1] amounted to 51.1%; in data set [2], 57.3%; in data set [3], 44.13%; in [4], 64.2%; in data set [5], 79.69%; in [6] it was 71.4%. Moreover, the Activity in data set [7] was found to be 69.3%. Moreover, the values for the zone of inhibition at 100 µg/disc in the data set with Staphylococcus aureus, in the data set with Proteus vulgaris and in the data set on Escherichia coli were 1.5 mm, 9.5 mm and 2 mm, respectively.
With `COc1cc(OC)c(C2=CCN(C)CC2)c(OC)c1/C=C/C(=O)c1ccc(Br)cc1`, the Activity was found to be 44.4% in [1]; 23.3% in data set [2]; 66.4% in data set [3]; 62.68% in data set [4]; 84.84% in data set [5]; 78.93% in data set [6]. Besides, the Activity in [7] worked out at 50.3%. The results for the zone of inhibition at 100 µg/disc in the data set with Candida albicans, with Staphylococcus aureus and with Escherichia coli were 0.5 mm, 0.5 mm and 2 mm, respectively.
Turning to `COc1cc(OC)c(C2=CCN(C)CC2)c(OC)c1/C=C/C(=O)c1ccc(F)c(F)c1`, the Activity in data set [1] was found to be 52.2%; in [2], 58.8%; in [3], 65.48%; in data set [4] it was 70.5%; in [5] it was 82.85%; in [6], 76.93%. Besides, the Activity in data set [7] is 43.9%. Moreover, the zone of inhibition at 100 µg/disc is 1.1 mm in the data set on Candida albicans, 2.5 mm in the data set on Staphylococcus aureus, 4 mm in the data set with Proteus vulgaris and 2 mm in the data set with Escherichia coli.
As to `COc1cc(OC)c(C(=O)/C=C/c2c(OC)cc(OC)c(C3=CCN(C)CC3)c2OC)c(OC)c1`, the Activity in data set [1] turned out to be 46.6%; in data set [2], 56.1%; in [3], 59.81%; in data set [4] it was 65.04%; in data set [5] it was 78.73%; in data set [6], 70.53%. Besides, the Activity in [7] amounted to 58.8%. The zone of inhibition at 100 µg/disc in the data set with Staphylococcus aureus, in the data set with Proteus vulgaris and with Escherichia coli was 3.5 mm each time.
Take `COc1ccccc1C(=O)/C=C/c1c(OC)cc(OC)c(C2=CCN(C)CC2)c1OC`: the Activity in data set [1] was determined as 59.8%; in [2], 60%; in data set [3] it was 46.77%; in data set [4], 68.4%; in [5], 81.13%; in data set [6], 71.33%. Moreover, the Activity in data set [7] came to 60.8%. In addition, the zone of inhibition at 100 µg/disc in the data set with Staphylococcus aureus turned out to be 2.5 mm; in the data set with Proteus vulgaris it was 3 mm; in the data set with Escherichia coli it was 3.5 mm.
In the case of `COc1ccc(C(=O)/C=C/c2c(OC)cc(OC)c(C3=CCN(C)CC3)c2OC)cc1`, the Activity came to 57.9% in [1]; 55.6% in data set [2]; 46.11% in data set [3]; 56.97% in data set [4]; 80.86% in data set [5]; 72.33% in data set [6]. Further, the Activity in data set [7] amounted to 67.7%. Moreover, the values for the zone of inhibition at 100 µg/disc in the data set with Staphylococcus aureus, in the data set on Proteus vulgaris and in the data set on Escherichia coli were 2.5 mm, 7 mm and 3.5 mm, respectively.
For the compound `COc1cc(OC)c(C2=CCN(C)CC2)c(OC)c1/C=C/C(=O)c1ccc(Cl)cc1`, the Activity in data set [1] was 16.9%; in data set [2], 20.4%; in [3], 67.98%; in [4], 65.04%; in data set [5], 83.74%; in data set [6], 77.4%. Besides, the Activity in data set [7] turned out to be 41.9%. In addition, the zone of inhibition at 100 µg/disc came to 2.5 mm with Staphylococcus aureus, 3 mm in the data set with Proteus vulgaris and 3 mm in the data set with Escherichia coli.
For `COc1ccc(OC)c(C(=O)/C=C/c2c(OC)cc(OC)c(C3=CCN(C)CC3)c2OC)c1`, the Activity in [1] is 54.9%; in data set [2], 57.7%; in data set [3] it was 41.1%; in data set [4], 66.3%; in data set [5] it was 82.09%; in data set [6], 73.4%. The Activity in data set [7] was found to be 66.5%. The zone of inhibition at 100 µg/disc is 5 mm in the data set on Staphylococcus aureus, 5 mm in the data set on Proteus vulgaris and 2.5 mm in the data set on Escherichia coli.
